Reference: ChEMBL document CHEMBL5257101, “Synthesis and evaluation of sulfonamide derivatives targeting EGFR790M/L858R mutations and ALK rearrangement as anticancer agents” (Bioorg Med Chem, 2023)
The source made the active and inactive calls. The calls are words filed in the database; no cut-off is given here.

Key:
NCI-H1975 [1] = test: Antiproliferative activity against human NCI-H1975 cells expressing EGFR T790M/ L858R double mutant assessed as inhibition of cell growth measured after 48 to 72 hrs by MTT assay; type: functional, cell-based
NCI-H2228 [2] = test: Antiproliferative activity against human NCI-H2228 cells expressing ALK assessed as inhibition of cell growth measured after 48 to 72 hrs by MTT assay; type: functional, cell-based
[3] = molecular target: ALK tyrosine kinase receptor (Homo sapiens, UniProt Q9UM73); test: Inhibition of ALK (unknown origin) pre-incubated for 10 mins followed by substrate addition measured after 60 mins in presence of ATP by mobility shifting assay
[4] = Selectivity ratio, ratio of IC50 for human A549 cells expressing wild type EGFR to IC50 for human NCI-H1975 cells expressing EGFR T790M/ L858R double mutant by MTT assay
[5] = molecular target: Epidermal growth factor receptor (Homo sapiens, UniProt P00533, L858R/T790M); test: Inhibition of EGFR L858R/T790M double mutant (unknown origin) pre-incubated for 10 mins followed by substrate addition measured after 60 mins in presence of ATP by mobility shifting assay
Epidermal growth factor receptor (Homo sapiens, UniProt P00533, L858R/T790M), sequence (P00533 25-1210 T790M/L858R limits assumed): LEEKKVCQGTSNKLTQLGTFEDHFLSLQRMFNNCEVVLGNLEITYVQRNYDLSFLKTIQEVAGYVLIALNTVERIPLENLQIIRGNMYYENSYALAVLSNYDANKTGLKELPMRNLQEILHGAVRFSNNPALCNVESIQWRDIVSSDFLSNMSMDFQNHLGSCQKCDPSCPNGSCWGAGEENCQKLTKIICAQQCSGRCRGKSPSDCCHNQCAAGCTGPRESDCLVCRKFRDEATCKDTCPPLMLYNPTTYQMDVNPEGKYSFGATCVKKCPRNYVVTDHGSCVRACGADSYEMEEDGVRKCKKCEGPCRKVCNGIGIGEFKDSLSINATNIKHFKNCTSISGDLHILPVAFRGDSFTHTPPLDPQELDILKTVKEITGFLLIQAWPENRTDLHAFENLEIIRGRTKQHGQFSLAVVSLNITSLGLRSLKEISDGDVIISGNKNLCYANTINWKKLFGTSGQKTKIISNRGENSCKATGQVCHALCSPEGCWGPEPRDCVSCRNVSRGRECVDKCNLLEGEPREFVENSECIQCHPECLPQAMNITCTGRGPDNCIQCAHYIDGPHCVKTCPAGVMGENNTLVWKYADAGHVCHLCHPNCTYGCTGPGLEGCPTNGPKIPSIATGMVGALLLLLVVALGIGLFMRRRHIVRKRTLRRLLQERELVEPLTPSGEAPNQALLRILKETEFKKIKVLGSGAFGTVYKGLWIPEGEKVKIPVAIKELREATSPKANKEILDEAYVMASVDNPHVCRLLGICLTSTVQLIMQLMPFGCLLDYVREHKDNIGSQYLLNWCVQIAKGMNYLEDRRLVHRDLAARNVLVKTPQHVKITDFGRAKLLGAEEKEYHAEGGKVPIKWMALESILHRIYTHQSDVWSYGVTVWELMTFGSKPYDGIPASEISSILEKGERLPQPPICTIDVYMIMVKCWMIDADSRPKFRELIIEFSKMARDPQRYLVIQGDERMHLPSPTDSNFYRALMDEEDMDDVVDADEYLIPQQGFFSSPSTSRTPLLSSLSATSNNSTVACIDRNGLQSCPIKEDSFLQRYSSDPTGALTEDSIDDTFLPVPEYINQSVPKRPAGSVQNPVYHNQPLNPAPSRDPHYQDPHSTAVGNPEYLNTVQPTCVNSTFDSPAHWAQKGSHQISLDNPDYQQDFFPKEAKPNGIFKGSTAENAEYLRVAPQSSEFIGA

[6] = molecular target: Epidermal growth factor receptor (Homo sapiens, UniProt P00533); test: Inhibition of wild type EGFR (unknown origin) pre-incubated for 10 mins followed by substrate addition measured after 60 mins in presence of ATP by mobility shifting assay
Epidermal growth factor receptor (Homo sapiens, UniProt P00533), sequence (P00533 whole entry): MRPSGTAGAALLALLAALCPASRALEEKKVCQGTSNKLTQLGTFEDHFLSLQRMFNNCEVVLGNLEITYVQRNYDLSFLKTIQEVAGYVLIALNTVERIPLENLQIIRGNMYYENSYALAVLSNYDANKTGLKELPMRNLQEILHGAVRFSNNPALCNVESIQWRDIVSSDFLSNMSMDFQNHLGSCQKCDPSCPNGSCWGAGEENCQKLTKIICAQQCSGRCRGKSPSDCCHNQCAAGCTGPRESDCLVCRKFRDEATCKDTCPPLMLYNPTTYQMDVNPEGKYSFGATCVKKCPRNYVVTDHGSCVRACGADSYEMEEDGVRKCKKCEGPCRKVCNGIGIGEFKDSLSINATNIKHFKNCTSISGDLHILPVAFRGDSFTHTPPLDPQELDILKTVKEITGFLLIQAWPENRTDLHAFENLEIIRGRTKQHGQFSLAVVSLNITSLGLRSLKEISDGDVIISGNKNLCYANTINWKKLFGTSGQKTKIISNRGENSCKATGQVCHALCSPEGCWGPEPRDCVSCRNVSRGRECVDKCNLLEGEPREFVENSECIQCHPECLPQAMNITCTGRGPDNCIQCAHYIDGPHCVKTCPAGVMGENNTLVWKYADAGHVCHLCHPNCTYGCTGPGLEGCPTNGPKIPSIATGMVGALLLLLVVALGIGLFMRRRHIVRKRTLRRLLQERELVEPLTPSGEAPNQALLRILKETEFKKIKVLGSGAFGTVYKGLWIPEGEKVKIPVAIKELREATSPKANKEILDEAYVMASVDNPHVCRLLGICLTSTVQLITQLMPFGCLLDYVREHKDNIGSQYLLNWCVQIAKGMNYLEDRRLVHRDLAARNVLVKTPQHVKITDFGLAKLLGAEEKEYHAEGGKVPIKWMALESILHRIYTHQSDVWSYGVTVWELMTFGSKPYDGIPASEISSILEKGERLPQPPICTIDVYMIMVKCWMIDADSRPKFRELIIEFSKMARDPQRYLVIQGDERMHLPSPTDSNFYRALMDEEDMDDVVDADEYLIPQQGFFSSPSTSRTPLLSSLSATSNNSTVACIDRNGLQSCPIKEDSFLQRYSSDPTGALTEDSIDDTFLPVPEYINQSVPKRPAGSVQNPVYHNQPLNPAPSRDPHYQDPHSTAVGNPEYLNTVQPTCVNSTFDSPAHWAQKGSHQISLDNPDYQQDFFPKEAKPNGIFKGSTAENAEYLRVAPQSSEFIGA

[7] = molecular target: Epidermal growth factor receptor (Homo sapiens, UniProt P00533, EX19DEL); test: Inhibition of EGFR Del19 mutant (unknown origin) pre-incubated for 10 mins followed by substrate addition measured after 60 mins in presence of ATP by mobility shifting assay
Epidermal growth factor receptor (Homo sapiens, UniProt P00533, EX19DEL), sequence (P00533 whole entry, looked up, stated change not applied): as the sequence (P00533 whole entry) above

Homo sapiens [8] = organism: Homo sapiens; test: Selectivity ratio, ratio of IC50 for wild type EGFR (unknown origin) to IC50 for EGFR L858R/T790M double mutant (unknown origin) by mobility shifting assay
Homo sapiens [9] = organism: Homo sapiens; test: Selectivity ratio, ratio of IC50 for wild type EGFR (unknown origin) to IC50 for EGFR Del19 mutant (unknown origin) by mobility shifting assay
A549 = test: Antiproliferative activity against human A549 cells expressing wild type EGFR assessed as inhibition of cell growth measured after 48 to 72 hrs by MTT assay; type: functional, cell-based
PC-9 = test: Antiproliferative activity against human PC-9 cells expressing EGFR Del19 mutant assessed as inhibition of cell growth measured after 48 to 72 hrs by MTT assay; type: functional, cell-based
[10] = Selectivity ratio, ratio of IC50 for human A549 cells expressing wild type EGFR to IC50 for human PC-9 cells expressing EGFR Del19 mutant by MTT assay
NCI-H1975 [11] = test: Effect on cell morphology in human NCI-H1975 cells assessed as appearance of blurred boundary region at 1 to 1000 nM incubated for 24 hrs; type: functional, cell-based; conditions: dose 1-1000 nM
NCI-H1975 [12] = test: Effect on cell morphology in human NCI-H1975 cells assessed as cell shrinkage at 1 to 1000 nM incubated for 24 hrs; type: functional, cell-based; conditions: dose 1-1000 nM
NCI-H1975 [13] = test: Effect on cell morphology in human NCI-H1975 cells assessed as cell aggregation at 1 to 1000 nM incubated for 24 hrs; type: functional, cell-based; conditions: dose 1-1000 nM
NCI-H1975 [14] = test: Effect on cell morphology in human NCI-H1975 cells assessed as disappearance of cell morphology at 1 to 1000 nM incubated for 24 hrs; type: functional, cell-based; conditions: dose 1-1000 nM
NCI-H2228 [15] = test: Effect on cell morphology in human NCI-H2228 cells assessed as increase of cell fragments at 1 to 1000 nM incubated for 24 hrs; type: functional, cell-based; conditions: dose 1-1000 nM
NCI-H2228 [16] = test: Effect on cell morphology in human NCI-H2228 cells assessed as increase of cell shrinkage at 1 to 1000 nM incubated for 24 hrs; type: functional, cell-based; conditions: dose 1-1000 nM
NCI-H2228 [17] = test: Effect on cell morphology in human NCI-H2228 cells assessed as increase of cell opacity at 1 to 1000 nM incubated for 24 hrs; type: functional, cell-based; conditions: dose 1-1000 nM
NCI-H2228 [18] = test: Effect on cell morphology in human NCI-H2228 cells assessed as loss of cell morphology at 1 to 1000 nM incubated for 24 hrs; type: functional, cell-based; conditions: dose 1-1000 nM
NCI-H2228 [19] = test: Effect on cell morphology in human NCI-H2228 cells assessed as loss of large number of floating cells at 1 to 1000 nM incubated for 24 hrs; type: functional, cell-based; conditions: dose 1-1000 nM
[20] = Cytotoxicity against human EA.hy 926 cells assessed as inhibition of cell growth measured after 48 to 72 hrs by MTT assay; type: toxicity, cell-based
[21] = Cytotoxicity against human HK-2 cells assessed as inhibition of cell growth measured after 48 to 72 hrs by MTT assay; type: toxicity, cell-based
[22] = Selectivity ratio, ratio of IC50 for human NCI-H1975 cells expressing EGFR T790M/ L858R double mutant to IC50 for human EA.hy 926 cells by MTT assay
[23] = Selectivity ratio, ratio of IC50 for human NCI-H2228 cells expressing ALK to IC50 for human EA.hy 926 cells by MTT assay
[24] = Selectivity ratio, ratio of IC50 for human NCI-H1975 cells expressing EGFR T790M/ L858R double mutant to IC50 for human HK-2 cells by MTT assay
[25] = Selectivity ratio, ratio of IC50 for human NCI-H2228 cells expressing ALK to IC50 for human HK-2 cells by MTT assay
EA.hy 926 = test: Effect on cell morphology in human EA.hy 926 cells at 1 uM incubated for 24 hrs by inverted microscopic analysis; type: functional, cell-based
HK-2 = test: Effect on cell morphology in human HK-2 cells at 1 uM incubated for 24 hrs by inverted microscopic analysis; type: functional, cell-based
NCI-H1975 [26] = test: Induction of apoptosis in human NCI-H1975 cells expressing EGFR T790M/ L858R double mutant assessed as increase in DNA breakage measured after 24 hrs by Hoechst 33342 staining based fluorescence microscopic analysis; type: functional, cell-based; conditions: dose 5-25 nM
NCI-H2228 [27] = test: Induction of apoptosis in human NCI-H2228 cells expressing ALK assessed as increase in DNA breakage measured after 24 hrs by Hoechst 33342 staining based fluorescence microscopic analysis; type: functional, cell-based; conditions: dose 5-25 nM
NCI-H1975 [28] = test: Inhibition of human NCI-H1975 cell cloning incubated for 24 hrs by inverted microscopic analysis; type: functional, cell-based; conditions: dose 5-25 nM
NCI-H2228 [29] = test: Inhibition of human NCI-H2228 cell cloning incubated for 24 hrs by inverted microscopic analysis; type: functional, cell-based; conditions: dose 1-20 nM
NCI-H1975 [30] = test: Antimigratory activity against human NCI-H1975 cells assessed as decrease in healing rate upto 10 nM measured upto 36 hrs by scratch-wound healing assay; type: functional, cell-based
NCI-H1975 [31] = test: Antimigratory activity against human NCI-H1975 cells assessed as reduction in cell migration incubated for 24 hrs by crystal violet staining microscopy based transwell migration assay; type: functional; conditions: dose 10-20 nM

## CNC(=O)c1ccccc1Nc1ncnc2cc(OCCOC)c(OCCOC)cc12
NCI-H1975 [1]
  IC50: > 10000 nM
NCI-H2228 [2]
  IC50: > 10000 nM

## C=CC(=O)Nc1cc(Nc2ncc(Cl)c(Nc3ccccc3S(=O)(=O)NC3CC3)n2)c(OC)cc1N(C)CCN(C)C
NCI-H1975 [1]
  IC50: 21.5 nM
NCI-H2228 [2]
  IC50: 11 nM
[3]
  IC50: 3.31 nM
[4]
  Ratio IC50: 77.25
[5]
  IC50: 1.08 nM
[6]
  IC50: 23.2 nM
[7]
  IC50: 0.72 nM
Homo sapiens [8]
  Ratio IC50: 21.5
Homo sapiens [9]
  Ratio IC50: 32.3
A549
  IC50: 1540 nM
PC-9
  IC50: 20 nM
[10]
  Ratio IC50: 71.86
NCI-H1975 [11]
  Activity: Active
NCI-H1975 [12]
  Activity: Active
NCI-H1975 [13]
  Activity: Active
NCI-H1975 [14]
  Activity: Active
NCI-H2228 [15]
  Activity: Active
NCI-H2228 [16]
  Activity: Active
NCI-H2228 [17]
  Activity: Active
NCI-H2228 [18]
  Activity: Active
NCI-H2228 [19]
  Activity: Active
[20]
  IC50: 1610 nM
[21]
  IC50: 3300 nM
[22]
  Ratio IC50: 74.83
[23]
  Ratio IC50: 146.27
[24]
  Ratio IC50: 157.28
[25]
  Ratio IC50: 300.27
EA.hy 926
  Activity: Active
HK-2
  Activity: Active
NCI-H1975 [26]
  Activity: Dose-Dependent Effect
NCI-H2228 [27]
  Activity: Dose-Dependent Effect
NCI-H1975 [28]
  inhibition: Active
NCI-H2228 [29]
  inhibition: Active
NCI-H1975 [30]
  Activity: Active
NCI-H1975 [31]
  Activity: Dose-Dependent Effect

## C=CC(=O)Nc1cc(Nc2ncc(F)c(Nc3ccccc3S(=O)(=O)N3CCCC3)n2)c(OC)cc1N(C)CCN(C)C
NCI-H1975 [1]
  IC50: 81 nM
NCI-H2228 [2]
  IC50: 19 nM

## Cc1cc(N(C)CCN(C)C)ccc1Nc1ncc(Cl)c(Nc2ccccc2S(=O)(=O)N(C)C)n1
NCI-H1975 [1]
  IC50: 170 nM
NCI-H2228 [2]
  IC50: 55.5 nM

## C=CC(=O)Nc1cc(Nc2ncc(F)c(Nc3ccccc3S(=O)(=O)N(C)C)n2)c(OC)cc1N(C)CCN(C)C
NCI-H1975 [1]
  IC50: 67 nM
NCI-H2228 [2]
  IC50: 45 nM

## COc1cc(N(C)CCN(C)C)c(NC(=O)CCl)cc1Nc1ncc(Cl)c(Nc2ccccc2S(=O)(=O)N(C)C)n1
NCI-H1975 [1]
  IC50: 1030 nM
NCI-H2228 [2]
  IC50: 104 nM

## CNS(=O)(=O)c1ccccc1Nc1ncnc2cc(OCCOC)c(OCCOC)cc12
NCI-H1975 [1]
  IC50: > 10000 nM
NCI-H2228 [2]
  IC50: > 10000 nM

## COCCOc1cc2ncnc(Nc3ccccc3S(=O)(=O)N(C)C)c2cc1OCCOC
NCI-H1975 [1]
  IC50: > 10000 nM
NCI-H2228 [2]
  IC50: > 10000 nM

## C=CC(=O)Nc1cc(Nc2ncc(Cl)c(Nc3ccccc3S(=O)(=O)N(C)C3CC3)n2)c(OC)cc1N(C)CCN(C)C
NCI-H1975 [1]
  IC50: 100 nM
NCI-H2228 [2]
  IC50: 24.5 nM

## C=CC(=O)Nc1cc(Nc2ncc(Cl)c(Nc3ccccc3S(=O)(=O)N3CCCC3)n2)c(OC)cc1N(C)CCN(C)C
NCI-H1975 [1]
  IC50: 13.6 nM
NCI-H2228 [2]
  IC50: 14 nM

## C=CC(=O)Nc1cc(Nc2nccc(-c3cn(C)c4ccccc34)n2)c(OC)cc1N(C)CCN(C)C [OSIMERTINIB]
NCI-H1975 [1]
  IC50: […]
A549
  IC50: 1560 nM
PC-9
  IC50: […]
[20]
  IC50: 1160 nM
[21]
  IC50: 2400 nM
HK-2
  Activity: inactive

## COCCOc1cc2ncnc(Nc3ccccc3S(=O)(=O)NC3CC3)c2cc1OCCOC
NCI-H1975 [1]
  IC50: > 10000 nM
NCI-H2228 [2]
  IC50: > 10000 nM

## Cc1cc(Nc2ncc(Cl)c(Nc3ccccc3S(=O)(=O)C(C)C)n2)c(OC(C)C)cc1C1CCNCC1 [CERITINIB]
[20]
  IC50: 1010 nM
[21]
  IC50: 2510 nM
[23]
  Ratio IC50: 228.36
[25]
  Ratio IC50: 77.69

## COCCOc1cc2ncnc(N(C)c3ccccc3S(=O)(=O)N(C)C)c2cc1OCCOC
NCI-H1975 [1]
  IC50: > 10000 nM
NCI-H2228 [2]
  IC50: > 10000 nM

## COCCOc1cc2ncnc(Nc3ccccc3S(=O)(=O)N3CCCC3)c2cc1OCCOC
NCI-H1975 [1]
  IC50: > 10000 nM
NCI-H2228 [2]
  IC50: > 10000 nM

## CN(C)CCN(C)c1ccc(Nc2ncc(Cl)c(Nc3ccccc3S(=O)(=O)N(C)C)n2)cc1
NCI-H1975 [1]
  IC50: 61 nM
NCI-H2228 [2]
  IC50: 108 nM

## CCN(CC)S(=O)(=O)c1ccccc1Nc1ncnc2cc(OCCOC)c(OCCOC)cc12
NCI-H1975 [1]
  IC50: > 10000 nM
NCI-H2228 [2]
  IC50: > 10000 nM

## C=CC(=O)Nc1cc(Nc2ncc(Cl)c(Nc3ccccc3S(=O)(=O)N(C)C)n2)c(OC)cc1N(C)CCN(C)C
NCI-H1975 [1]
  IC50: 12.5 nM
NCI-H2228 [2]
  IC50: 18 nM
